US10639320B2, “Pharmaceutical composition comprising gold-containing agent for preventing or treating liver fibrosis or liver cirrhosis” (KOREA UNITED PHARM. INC., priority 2014, dated 2020)

Key:
[1] = test system: RAW264.7 cells; assay: iNOS and TREM-2 expression by western blot in RAW264.7 cells under M1-type differentiation (LPS/IFN-γ); assay type: cell-based, mouse; settings: RAW264.7 cells treated with LPS/IFN-γ (M1-type condition)
Method: (§1) Sodium dodecyl sulfate-polyacrylamide gel electrophoresis (SDS-PAGE) was performed using a gel electrophoresis apparatus (Mighty Small SE 250, Hoefer Scientific Instruments, San Francisco, USA) according to the Laemmli's protocol. A dissolved fraction of cells was diluted in a sample dilution buffer [63 mM Tris (pH.6.8), 10% glycerol, 2% SDS, 0.0013% bromophenol blue, 5% β-mercaptoethanol) and electrophoresed in an electrode buffer (containing Tris (15 g), glycerin (72 g), and SDS (5 g) in 1L solution) using 8%- and 10% gels. Upon completion of gel electrophoresis, the gel was transferred onto a nitrocellulose membrane at 40 mAmps for 3 hours in a transfer buffer solution (25 mM Tris, 192 mM glycerin, 20% v/v methanol (pH 8.3)). Each of anti-TREM-2, anti-arginase-1, anti-iNOS, anti-α-SMA, and anti-collagen-1a1, as primary antibodies, was reacted on the nitrocellulose membrane, respectively, and horseradish peroxidase-conjugated goat anti-rabbit IgG and horseradish peroxidase-conjugated goat anti-mouse IgG, as secondary antibodies, were reacted thereonto for 1 hour, and the nitrocellulose membrane was allowed to develop colors using the ECL detection system (ECL chemiluminescence system, Amersham, Gaithesberg, Mass., USA). The identity of protein contents in a sample was confirmed using anti-β-actin antibody and anti-lamin A/C. With respect to the change in the amount of protein expression, the coloration intensity was induced using a densitometry and the scanning of the densitometry was performed using the Image Scan & Analysis System, Alpha-Innotech Co. (USA). In each lane, the intensities were calculated using the AlphaEase™ version 5.5 software by subtracting background intensities.
In order to confirm whether gold-containing agents can induce the transformation into M2-type macrophages, the RAW264.7 cells, which is a mouse macrophage cell line, were treated with lipopolysaccharide (LPS)/interferon-gamma (IFN-γ), followed by treatment with auranofin in a condition for differentiation into M1-type macrophages, and the increase/decrease in expressions of iNOS and TREM-2 was confirmed by western blot analysis.
First, the RAW264.7 cells, which is a mouse macrophage cell line, were respectively treated with sodium aurothiomalate and aurothioglucose, which are analogous to auranofin, in a condition for differentiating the cells into M1-type macrophages by treating with lipopolysaccharide (LPS)/interferon-gamma (IFN-gamma), and the increase/decrease in expression of iNOS was confirmed by western blot analysis.

[2] = test system: RAW264.7 cells; assay: Arginase-1 expression by western blot in RAW264.7 cells under M2-type differentiation (IL-4); assay type: cell-based, mouse; settings: RAW264.7 cells treated with IL-4 (M2-type condition)
Method: as §1, with “The identity of protein contents in a sample was confirmed using anti-β-actin antibody and anti-lamin A/C. With respect to the change in the amount of protein expression, the coloration intensity was induced using a densitometry and the scanning of the densitometry was performed using the Image Scan & Analysis System, Alpha-Innotech Co. (USA).” left out, “intensities. […]” for “intensities.”

[3] = test system: carbon tetrachloride-induced liver fibrosis; assay: Mouse model with carbon tetrachloride-induced liver fibrosis: fibrosis scores, α-SMA and collagen-1a1 in liver tissue; assay type: in vivo, C57BL/6J mice; settings: 5 times a week for 3 weeks, CCl4 mouse model
Method: A mouse model with carbon tetrachloride-induced liver fibrosis was prepared by repeatedly administering 0.5 ml/kg of carbon tetrachloride to C57BL/6J mice twice a week for three weeks.
as §1, with “The identity of protein contents in a sample was confirmed using anti-β-actin antibody and anti-lamin A/C. With respect to the change in the amount of protein expression, the coloration intensity was induced using a densitometry and the scanning of the densitometry was performed using the Image Scan & Analysis System, Alpha-Innotech Co. (USA).” left out
In the case of liver tissue, a certain amount of liver tissue was homogenized in a mortar along with liquid nitrogen and a cell lysis buffer, transferred into a new tube, and vortexed. The resultant was centrifuged at 14,000 rpm and 4° C. for 20 minutes and the middle layer was collected therefrom and the protein amount was quantitated by Bradford assay. After subjecting 30 μg of the protein to electrophoresis by SDS-PAGE, the change in the expression of α-SMA protein was measured by western blot analysis. […]

[4] = test system: MEF cells; assay: α-SMA expression by western blot in MEF cells treated with medium of auranofin-treated RAW264.7 cells; assay type: cell-based, mouse; settings: MEF cells treated with medium from treated RAW264.7 cells
Method: as §1, with “The identity of protein contents in a sample was confirmed using anti-β-actin antibody and anti-lamin A/C. With respect to the change in the amount of protein expression, the coloration intensity was induced using a densitometry and the scanning of the densitometry was performed using the Image Scan & Analysis System, Alpha-Innotech Co. (USA).” left out, “intensities. […]” for “intensities.”

SMILES | expression of iNOS [1] | expression of arginase-1 [2] | liver fibrosis scores ([3]; 10 mg/kg oral, H&E staining) | expression of collagen-1a1 in liver tissue ([3]; oral 1, 3 and 10 mg/kg) | expression of α-SMA in liver tissue ([3]; oral 1, 3 and 10 mg/kg) | expression of TREM-2 [1] | expression of α-SMA [4]
O=C([O-])CC([S-])C(=O)[O-].[Au+].[Na+].[Na+] (stereo not shown) [sodium aurothiomalate] | inhibited | increased | – | – | – | – | –
CC[PH](CC)(CC)[Au][S][C@@H]1O[C@H](COC(C)=O)[C@@H](OC(C)=O)[C@H](OC(C)=O)[C@H]1OC(C)=O [auranofin, 2,3,4,6-tetra-O-acetyl-1-thio-β-D-glucopyranosato-S-[triethylphosphine] gold] | inhibited | – | significantly lowered | apparently reduced | apparently reduced | increasing | inhibited
OC[C@H]1O[C@H]([S-])[C@H](O)[C@@H](O)[C@@H]1O.[Au+] [aurothioglucose] | inhibited | increased | – | – | – | – | –
